Assay: Drug levels in plasma by LC-MS/MS as measure of adherence (Example 2)
Format: in vivo, human
Conditions: TDF-FTC group, first 113 participants enrolled; limit of detection 0.1 ng/ml tenofovir, 0.4 ng/ml FTC
Method: Pill count was the first measure of adherence. Participants were asked to return their study-drug bottles at each visit, and a pill count of unused medication was performed. We also measured drug levels in plasma in the first participants who were enrolled. Plasma was tested for the presence of tenofovir and FTC with the use of a validated liquid chromatography-tandem mass spectrometry method with a limit of detection of 0.1 ng per milliliter for tenofovir and 0.4 ng per milliliter for FTC. This plasma assay was able to detect drugs up to 9 days after intake.

SMILES	rate of detection in plasma
Nc1nc(=O)n([C@@H]2CS[C@H](CO)O2)cc1F [FTC, 4-amino-5-fluoro-1-[(2R,5S)-2-(hydroxymethyl)-1,3-oxathiolan-5-yl]-1,2-dihydropyrimidin-2-one]	82%
C[C@H](Cn1cnc2c(N)ncnc21)OCP(=O)(O)O [tenofovir, ({[(2R)-1-(6-amino-9H-purin-9-yl)propan-2-yl]oxy}methyl)phosphonic acid]	86%

Source: patent publication US20180015111A1, “METHODS FOR ON DEMAND PRE-EXPOSURE PROPHYLACTIC TREATMENT OF HIV INFECTION” (INSERM (INSTITUT NATIONAL DE LA SANTE ET DE LA RECHERCHE …, priority 2015, published 2018)
